As usually defined, the share remaining is what is left of the initial amount, in per cent. A low value points to a greater loss. What is called half-life is the time needed for the level to fall by half in the phase considered. Low readings indicate fast loss, high ones slow loss. A word on the AUC(0-t): it is the area under the concentration-time curve up to a stated or last time point. Lower therefore signals less exposure. As a reminder, the Cmax is the highest concentration seen after dosing. For orientation: clearance means the rate of elimination divided by the concentration. As a reminder, the MRT is the average time that molecules of a dose stay in the body. Usually Tmax stands for the time at which the peak concentration occurs. A word on the Vd: it is the apparent volume that relates the amount in the body to the concentration in plasma or blood. High values mean extensive tissue distribution, low ones confinement near the circulation.

Read-outs that look alike come from different tables or passages of the source.

Series [1] concerns MDA-MB-231 cells. Description: Wound healing assay. Format: cell-based. The following applies: identical concentrations of D- and L-isomer. Here is the method: The wound healing assay was performed using two breast cancer cell lines, MDA-MB-231 and MCF-7, and two prostate cancer cell lines, PC-3 and DU-145, to evaluate the antimigratory capacity of the peptides. […] The cells were grown to approximately 80% confluency in 12-well tissue culture plates, and a cell-free area was created by scraping the monolayer. The peptides were added, and the cells were incubated at 37 °C with 5% CO2 for 24 h. Wound closure was assessed by imaging the wounds at 0 and 24 h, and the wound areas were quantified using ImageJ software (https://imagej.net/ij/). In the transwell invasion assay, MDA-MB-231 cells were serum starved for 4 h followed by a pretreatment with increasing concentrations of each peptide in a 0.1% serum-containing DMEM for 24 h. The cells were then trypsinized, resuspended in same media for the second treatment of peptides, and counted. Next, 40,000 cells were resuspended in 0.1% serum containing DMEM and added to the upper chamber of Transwell plates (Corning Life Sciences) with a polyethylene terephthalate membrane (6.4 mm diameter, 8 μm pore size). The bottom chambers were filled with DMEM containing 10% FBS as a chemoattractant. The transwell plates were incubated at 37 °C with 5% CO2 for 24 h to allow the invasion of cells through the membrane. The invaded cells on the lower side of the membrane were fixed with 4% paraformaldehyde for 15 min, followed by a PBS wash. The membrane inserts were further fixed with ice-cold methanol for 20 min and stained with 0.25% (w/v) crystal violet. After incubation, the noninvasive cells on the upper surface of the membrane were gently removed using a cotton swab. Random fields were chosen for imaging, and the number of invaded cells was counted using ImageJ software. The results were expressed as the average number of invaded cells compared with the control.

Series [2] has as its system MDA-MB-231 cells. Description: Western blot of MIEN1 signaling pathway proteins. In kind it is cell-based. The following applies: mean values of immunoblot densitometry. On the procedure:
Cells were exposed to the peptides and subjected to Western blot analysis with the indicated antibodies. […] Cytoplasmic and nuclear cell lysate extracts of EGF only and EGF plus peptide-treated cells were probed for p65 and p50. Lamin A/C and β-actin were used as nuclear and cytoplasmic loading control respectively. Densitometry was determined with immunoblots (N = 3) and normalized to total protein or β-actin for whole cell lysates and cytoplasmic fraction of peptide-treated MDA-MB-231 cells. In case of nuclear lysates, the immunoblots were normalized with Lamin A/C. Bar graphs are densitometric data (means ± SD). […] EGF concentration: (10 ng/ml); Peptide concentration: 90 μM. EGF, epidermal growth factor; MIEN1, migration and invasion enhancer 1; NF-κB, nuclear factor kappa B.
Western blot analysis was performed according to standard protocols to assess the effects of MIEN1-derived peptides and their analogs on MDA-MB-231 cells and DU-145 cells. Cell lysates were prepared using radioimmunoprecipitation assay buffer and quantified for protein content by bicinchoninic acid method. […] Protein blocking with 5% bovine serum albumin was followed by incubation with primary antibodies specific to various proteins at 4 °C for 8 to 10 h. The membrane was then washed three times in Tris Buffered Saline with Tween 20 and incubated with the appropriate secondary antibody. Protein bands were visualized using the Alpha Innotech chemiluminescent detection system. In case of MDA-MB-231 cells, cytoplasmic and nuclear extracts were isolated to investigate the effects of peptides and/or EGF stimulation. Prior to exposure to the cells, the test peptides (90 μM) were incubated with EGF (10 ng/ml) in media at 4 °C for 15 min. The untreated MDA-MB-231 cells received EGF alone at the same concentration. The isolation of cytoplasmic and nuclear fractions was performed using the Subcellular Protein Fractionation Kit for Cultured Cells from Thermo Fisher Scientific (cat #78840) following the manufacturer's guidelines. For Western blot experiments, 20 μg of purified cytoplasmic and nuclear fraction was used.
Densitometry analysis of Western blot data was conducted using the AlphaView-FluorChem HD2 software of the Alpha Innotech chemiluminescent detection system (https://www.cambridgescientific.com/product/alpha-innotech-fluorchem-hd2-gel-imaging-system). To quantify band intensities, a uniform rectangle was drawn around each band, and background subtraction was applied to determine the total pixel density for each lane. Further calculations, including the determination of the ratio of phosphorylated proteins to total proteins or other loading controls, were carried out using Microsoft Excel. […]
For orientation: In western blotting, separated proteins are transferred to a membrane and probed.

Series [3] can be described thus: in vitro. As to conditions: microsomes. On the procedure: An NADPH-regenerating system (1.7 mg/ml NADP, 7.8 mg/ml glucose-6-phosphate, 6 U/ml glucose-6-phosphate dehydrogenase in 2% w/v NaHCO3/10 mm MgCl2) was added for analysis of Phase I metabolism after heating both the regenerating solution and the sample tubes to 37 °C for 5 min in a 37 °C shaking water bath. The incubation was continued and at varying time points after addition of phase I cofactors, the reaction was stopped by the addition of 0.5 ml of acetonitrile containing IS and formic acid such that the final concentration of IS was 100 ng/ml and acid was 0.1%. Time 0 samples were stopped with the acetonitrile solution while still on ice prior to addition of the NADPH regenerating system and compound, which were subsequently added. The samples were incubated for 10 min at room temperature and then spun at 16,100g for 5 min in a microcentrifuge at 4 °C. The supernatant was analyzed by LC-MS/MS. The method described by McNaney et al. was used with modification for determination of metabolic stability half-life by substrate depletion ([59]). A “% remaining” value was used to assess the metabolic stability of a compound over time. The LC-MS/MS peak area of the incubated sample at each time point was divided by the LC-MS/MS peak area of the time 0 (T0) sample and multiplied by 100. The natural Log (LN) of the % remaining of compound was then plotted versus time (in min) and a linear regression curve was plotted going through y-intercept at LN (100).

Series [4] is described as follows: in vitro. The following applies: plasma. Here is the method: CD1 mouse plasma isolated using acidified citrate dextrose was purchased from BioIVT. Each peptide's dimethyl sulfoxide stock was then mixed into the plasma, resulting in a 2 μM final concentration. An aliquot was immediately collected for a zero time point and quenched with an equal volume of acetonitrile containing 0.2% formic acid and 200 ng/ml tolbutamide IS. […] Samples were withdrawn at specific intervals and processed similarly to the zero time point. The supernatant obtained after vortexing and centrifugation was subjected to LC-MS/MS analysis as previously detailed. A control incubation was performed using 0.9% NaCl (saline).

The conditions of series [5]: mouse, in vivo, iv, 5 mg/kg.
Series [6] can be described thus: in vivo. As to conditions: female, CD1, mouse, iv, 5 mg/kg.
The nature of series [7]: Pharmacokinetic studies in CD1 mice. The following applies: mouse, in vivo, iv, 5 mg/kg.

`CC[C@@H](C)[C@@H](NC(=O)[C@@H](C)NC(=O)[C@@H](CC(C)C)NC(C)=O)C(=O)N[C@H](C)C(=O)N[C@@H](C(=O)N[C@H](CCCCN)C(N)=O)C(C)C` [D-LA3IK]: in series [1], the “decrease in cell migration compared to L counterpart” value is reported as 30.2%. Further, in series [2], the “greater inhibition of FAK phosphorylation than L-peptide counterpart” value was determined as 34.2% and the “greater inhibition of SRC phosphorylation than L-peptide counterpart” value is 48.8%. This molecule registered a fraction remaining at 2 h, 2 μM in series [3] (male, Institute of Cancer Research/CD-1, mouse, pH 7.5) of 100%. Also, in series [3] (mouse), the half-life was over 120 min. In addition, the amount remaining at 24 h, 2 μM in series [4] (CD1, mouse) was found to be 75%. In series [4] (mouse), this molecule displayed a half-life of over 1440 min. Further, in series [5], the AUC(0-t) was 3400 ng·h/mL, the Cmax was determined as 3570 ng/mL, the clearance is 24.5 mL/min/kg and the half-life is 215 min. In addition, in series [6], the MRT was 1.03 h, the Tmax was determined as 4.8 min and the Vd is 7.58 L/kg. For the same molecule, the volume of distribution (Vd) in series [7] stood at 1.57 L/kg.

Values taken from publication PMC10878790 (The Journal of Biological Chemistry, 2024).
